Experimental data from PMC10743653, “Combined In Silico and In Vitro Analyses to Assess the Anticancer Potential of Thiazolidinedione–Thiosemicarbazone Hybrid Molecules” (International Journal of Molecular Sciences, 2023).

How the values were obtained:
HepG2 cells [1] = assay: MTT assay, HepG2; assay type: cell-based, human; conditions: for IC50: Homo sapiens, HepG2, MTT, 24 h treatment, mean ± SD; for SI (selectivity index): IC50 CCD 841 CoTr divided by IC50 HepG2
Experimental: The effects of TZD–TSCs 2–5 on the cellular viability of a panel of cell lines were investigated through an 3-(4,5-dimethylthiazol-2-yl)-2,5-diphenyl-2H-tetrazolium bromide (MTT) assay, following a 24 h treatment with the compounds. The panel consisted of three solid tumor cells: T98G (glioblastoma multiforme), HepG2 (hepatocellular carcinoma, epithelial), and HT29 (colon adenocarcinoma, epithelial), as well as noncancerous cells CCD 841 CoTr (normal colon, epithelial).
Primary single dose screenings of TZD–TSCs 2–5 were performed at a concentration of 200 μg/mL, and those that elicited a greater than 80% inhibition of cell proliferation were analyzed at several concentrations, to find their half-maximal inhibitory concentration (IC50). The IC50 values, reported as the mean ± SD in Table 2, indicate the concentration of the tested compound that inhibits the growth/viability of the cancer cell population by 50%. In this specific case of an MTT assay, which measures the activity of mitochondrial dehydrogenases (as an indicator of cell viability), the IC50 values stand for the concentration that inhibits the metabolic activity of cells by 50%.
Human colon adenocarcinoma cells, HT29 (ATCC no. HTB-38), derived from a grade I tumor, were cultured in roswell park memorial institute Medium (RPMI) 1640 medium, supplemented with 10% fetal calf serum (FCS) (GibcoTM, Paisley, UK) and antibiotics (100 U/mL penicillin and 100 μg/mL streptomycin) (Sigma, St. Louis, MO), at 37 °C in a humidified atmosphere with 5% CO2. Human normal colon epithelial cells, CCD 841 CoTr (ATCC no. CRL-1807), were cultured in RPMI 1640 + dulbecco’s modified eagle medium (DMEM) (1:1) medium (Sigma, St. Louis, MO), supplemented with 10% FCS and antibiotics, at 34 °C in a 5% CO2/95% air atmosphere. Human glioblastoma T98G cells were cultured in Dulbecco’s Modified Eagle’s Medium (DMEM) (Sigma Aldrich, St. Louis, MO, USA), supplemented with 10% fetal bovine serum (FBS), penicillin (100 U/mL), and streptomycin (100 μg/mL). Human hepatocellular carcinoma cells, HepG2, were maintained in Eagle’s Minimum Essential Medium, supplemented with 10% FBS, penicillin (100 U/mL), and streptomycin (100 μg/mL).
After 24 h of incubation of the cells with the tested compounds in 100 μL of culture medium, MTT solution (5 mg/mL, 25 μL/well) was added and incubated for an additional 3 h. The purple crystals of formazan which formed in the medium were solubilized overnight in 10% sodium dodecyl sulphate (SDS) in a 0.01 M HCl mixture. The product was quantified spectrophotometrically by measuring its absorbance at 570 nm using an Emax Microplate Reader (Molecular Devices Corporation, Menlo Park, CA, USA).

HepG2 cells [2] = assay: Cell migration (wound healing) assay, HepG2; assay type: cell-based, human; conditions: HepG2, IC50 doses (2: 10.39 μM; 3: 2.97 μM), 24 h
Experimental: (§1) The possible anti-migratory effect of 2 and 3 was examined against HepG2 and T98G cells, which most effectively responded to TZD–TSC treatment. The ability of cells to cover the scratched area was monitored after 24 h of incubation with compounds 2 and 3. […] Thus, we can conclude that the anticancer potential of the investigated compounds is enriched by their anti-metastatic effect.
Cell migration ability was evaluated according to a wound healing assay. On the day of the experiment, HepG2 and T98G cells were collected from monolayers using trypsin/EDTA and seeded on 6-well plates at a density of 1 × 10^5 cells mL^−1. After 24 h, when the confluence of cells reached about 80%, a vertical linear scratch was created in the monolayer with a sterile pipette tip. The cells were washed three times with a phosphate-buffered saline (PBS) to remove all cellular debris. […] The open wound area was measured with the NIH ImageJ software version 1.53t (Bethesda, Rockville, MD, USA). The percentage of wound closure was calculated using the following formula [81]: Wound closure (%)=open wound area at 0 h −open wound area at 24 h or 48 h/open wound area at 0 h×100%

T98G cells [3] = assay: Cell migration (wound healing) assay, T98G; assay type: cell-based, human; conditions: 24 h; for Migration of cancer cells (wound healing): IC50 doses (2: 26.82 μM; 3: 28.34 μM); for Reduction in the migratory potential: ½ IC50 concentrations (2: 13.41 μM; 3: 14.17 μM)
Experimental: as §1
Cell migration ability was evaluated according to a wound healing assay. On the day of the experiment, HepG2 and T98G cells were collected from monolayers using trypsin/EDTA and seeded on 6-well plates at a density of 1 × 10^5 cells mL^−1. After 24 h, when the confluence of cells reached about 80%, a vertical linear scratch was created in the monolayer with a sterile pipette tip. The cells were washed three times with a phosphate-buffered saline (PBS) to remove all cellular debris. Subsequently, the cells were cultured in a serum-free medium, containing compounds 2 or 3 in the concentrations equal to their IC50 or ½ IC50 values, as examined for HepG2 and T98G cancer cell lines (data provided in Table 2).Images of the scratch were taken after 0 h and 24 h using an Olympus CKX53 microscope coupled with a XM10 digital camera (Olympus). The experiments were performed at least in duplicate. The scratch area at the beginning of the experiment (0 h) was considered to be 100%. The open wound area was measured with the NIH ImageJ software version 1.53t (Bethesda, Rockville, MD, USA). The percentage of wound closure was calculated using the following formula [81]: Wound closure (%)=open wound area at 0 h −open wound area at 24 h or 48 h/open wound area at 0 h×100%

T98G cells [4] = assay: ECM cell invasion assay (colorimetric), T98G; assay type: cell-based, human
Experimental: The anti-invasion effects of 2 and 3 were examined using a Cell Invasion Assay Kit (ECM550, CHEMICON—Millipore Co., Billerica, MA, USA). In brief, 10^5 tumor cells were suspended in medium with 10% FBS and plated into the upper chamber, containing 8 μm pore size polycarbonate membrane precoated with ECMatrix, followed by filling the lower chamber with the same medium, enriched with the investigated compounds. Afterwards, cells were incubated for 24 h and allowed to invade towards the bottom chamber (with medium + 10% FBS). The non-invading cells on the upper membrane surface were removed with a cotton swab and the invasive cells, i.e., cells attached to the lower membrane surface, were stained with 0.1% crystal violet. For colorimetric quantitation, the stained cells were dissolved in 10% acetic acid (200 μL/well) and the obtained solution was transferred to a 96-well plate for spectrometric measurements, at a wavelength of 560 nm.

[5] = test system: human red blood cells (RBCs); assay: In vitro hemolysis assay; assay type: cell-based; conditions: 30 min, 37 °C, at IC50 values for HepG2
Experimental: The hematologic toxicity of the most cytotoxic TZD–TSCs, compounds 2 and 3, was tested via in vitro hemolysis assay, following a 30 min treatment of human RBCs at 37 °C with these compounds.
Human red blood cell (RBC) concentrate was obtained from the Regional Blood Donation and Transfusion Centre (Lublin, Poland). The RBC concentrate (5 mL) was washed three times with sterile PBS and centrifuged at 500 g for 3 minutes. The obtained pellet was suspended in sterile PBS to obtain a 2% suspension, which was subsequently mixed with 1 mL of solution of TZD–TSCs 2 and 3. […] The mixtures were incubated at 37 °C for 30 min and, subsequently, centrifuged at 1400× g for 10 min. The amount of free hemoglobin in the supernatants was measured spectrophotometrically at 405 nm. Negative and positive controls were performed by incubating RBCs with sterile PBS and 0.1% Triton-X, respectively. Each experiment was run in triplicate.

Row | SMILES | IC50 (HepG2 cells [1]) | SI (selectivity index) (HepG2 cells [1]) | Migration of cancer cells (wound healing) (HepG2 cells [2]) | Migration of cancer cells (wound healing) (T98G cells [3]) | Reduction in the migratory potential (T98G cells [3]) | Invasion through artificial ECM model (T98G cells [4]; 1/10 IC50 to IC50, 24 h) | Invasion through artificial ECM model (T98G cells [4]; 1/10 of the IC50 doses, 24 h) | Hemolytic activity (free hemoglobin released) [5]
1 | O=C(C=C1SC(=O)NC1=O)Oc1ccccc1C=NNC(=S)Nc1ccccc1Cl [TZD–TSC 2] | 10.4 ± 0.72 µM | 4.30 | almost completely suppressed | almost completely suppressed | > 90% | exhibited inhibitory effects | statistically significantly inhibited | no specific hemolytic activity
2 | O=C(C=C1SC(=O)NC1=O)Oc1ccccc1C=NNC(=S)Nc1cccc(Cl)c1 [TZD–TSC 3] | 2.97 ± 0.39 µM | 33.80 | almost completely suppressed | almost completely suppressed | > 90% | exhibited inhibitory effects | statistically significantly inhibited | no specific hemolytic activity
